# Where two headings read alike, the source gives them in different places.
# Experiments:
# Salmonella = conditions: Ames, micronucleus and other assays as per footnotes; cited from earlier work
# rat = conditions: cited from earlier work
# porcine scleral tissue = assay: scleral tissue cross-linking of cut porcine scleral pieces, shift in Tm by DSC
# Experimental: Equatorial scleral strips approximately 6 mm×40 mm in size were obtained from multiple eyes. These strips were submerged in DPBS solution containing 1 mM EDTA to inactivate native collagenases and to prevent tissue dehydration during sample preparation. Each strip was further cut into smaller 4 mm×3 mm pieces. The scleral pieces were individually transferred to a 24 well plate and were incubated in 1 ml of cross-linking solution in 0.1M NaHCO3 buffer at either pH 8.5 or 7.4 for 30 mins at 25° C. without refreshing the solution. […] Negative controls were treated identically with vehicle. Post-treatment, all solutions were aspirated and samples were washed twice using DPBS to remove remnant cross-linking solution before being analyzed by DSC. A minimum of three independent determinations were carried out for each condition using scleral pieces originating from different porcine globes.
# (§1) Thermal denaturation temperature (Tm) of all samples was measured using a Perkin-Elmer DSC 6000 Autosampler (Waltham, Mass.). Tissue samples were carefully blotted in a standardized, repetitive manner to remove excess solution/DPBS and transferred to pre-weighed 50 ul aluminum pans. The pans were immediately hermetically sealed using a DSC pan sealing press, which is used to prevent tissue dehydration due to evaporative losses. DSC scans were run using Pyris software (version 11.0) from 40° C. to 75° C. at a rate of 1° C./min and denaturation curves representing differential heat flow over time were recorded. DSC heat flow endotherm data was analyzed using the Pyris data analysis peak search function using a calculation limit of ±0.3° C. from the apparent thermal denaturation peak.
# Conversely, scleral samples were subjected to non-paired t-tests assuming equal variance of data. […] All ΔTm values are reported in the form of mean value followed by standard error.
# [1] = cross-linking (gel formation) with polyallylamine (PAA) hydrogel model system; conditions: with PAA at 37° C. and pH 7.4 phosphate buffered solution
# Source text: Shown in Table 1 below are the results from a parallel study using a hydrogel functionalized amine cross-linking system (polyallylamine, or “PAA”) previously published for reactions using nitroalcohols (NAs). Li et al., “Mechanistic and catalytic studies of β-nitroalcohol crosslinking with polyamine,” J Appl Polym Sci. 2013; 128:3696-3701. The Table summarizes the results obtained in comparison studies using three of the higher order nitroalcohols previously reported (the nitrotriol HNPD, the nitrodiol MNPD, and the brominated nitrodiol known as Bronopol). The cross-linking efficacy of these nitroalcohol compounds were compared to two of the instantly disclosed formaldehyde releasing agents (diazolidinyl urea (DAU) and imidazolidinyl urea (IMU)). The time to gel formation indicates cross-linking efficacy in this system.
# [2] = tested on: intact cadaveric rabbit cornea; assay: ex vivo rabbit corneal cross-linking simulation setup, shift in thermal denaturation temperature (Tm) by DSC; conditions: for cross-linking efficacy compared with nitroalcohol NP (250 mM, 60 minutes): FIG. 2, half of maximum allowed concentration (DAU 9 mM, SHMG 18.5 mM, DMDM 16 mM), 30 minutes; for ΔTm (shift in denaturation temperature of corneal tissue): Second Experimental Details, 30 mins, mean ± standard error
# Experimental: 0.5% proparacaine was applied prior to the cross-linking solution. A cross-linking solution containing the formaldehyde releasing agent was then administered via a corneal reservoir for 30 minutes in 0.1M NaHCO3 at either pH 7.4 or 8.5. The epithelium was left intact. The control contralateral eye was treated identically with vehicle.
# Effectiveness of cross-linking was based on shifts in thermal denaturation temperature (Tm) as measured by differential scanning calorimetry (DSC) (Perkin-Elmer DSC 6000).
# Intact cadaveric rabbit heads with clear corneas were obtained fresh (within an hour of sacrifice) in adherence with the ARVO Statement For the Use of Animals in Ophthalmic and Vision Research. FAR solutions at concentrations equivalent to half the maximum allowed value (½ max) were administered in a manner designed to simulate therapeutic cross-linking in patients. For all of the corneal experiments (with the notable exception of CXL), the corneal epithelium was left intact. An 8 mm Hessburg-Barron corneal reservoir was affixed to the corneal surface using the supplied syringe vacuum. A single drop of proparacaine (0.5%) was applied to the corneal surface prior to reservoir application. A buffer solution containing 0.1M NaHCO3 at either pH 8.5 or 7.4 was used. The pH of the sample and buffer mixture was titrated to the desired pH just prior to application to the eye using an appropriately concentrated HCl solution. Treatments were conducted over a 30-minute period at 25° C. with refreshing of the solution every five minutes. The control contralateral eye was treated identically with vehicle. Immediately after treatment, a central 6 mm corneal button was trephined from the treated region of each eye, was blotted on both sides using a paper towel to remove excess solution, and was analyzed using differential scanning calorimetry (DSC) [see below]. A minimum of two independent determinations were carried out for each condition described using a fresh cadaver head each time.
# as §1
# Due to the nature of the ex vivo cadaveric system used for corneal cross-linking, where each cadaver provided the treated eye and contralateral control, corneal samples were subjected to paired t-tests. […] All ΔTm values are reported in the form of mean value followed by standard error.
# [3] = from literature registry; cited from earlier work
# [4] = tested on: human skin fibroblasts (HSFs); conditions: past cell toxicity studies; cited from earlier work
# [5] = quantitative determination of formaldehyde release by 13C-NMR; assay type: physicochemical; conditions: pH 7.4 phosphate buffer, releaser 1.5 M; for Concentration of formaldehyde (M)a: free formaldehyde after 30 min at 37° C.; for Concentration of formaldehyde (M)b: free formaldehyde after 1 hour at 37° C.
# Experimental: In the study corresponding with Table 2, NMR samples were prepared in NMR tubes as follows: X mg of formaldehyde-releaser, 500 ul of phosphate buffer (pH 7.4), and 500 ul of a solution of acetonitrile in D2O as internal standard (0.2M). […]. For each spectrum, the area of the formaldehyde signal at 82.5 ppm was compared with that of the acetonitrile signal at 1.3 ppm (internal standard).
# • Concentration of formaldehyde-releasing agent (FAR), including nitroalcohols is 1.5 M. ^aConcentration of free formaldehyde (FA): after the sample was incubated in a water bath at 37° C. for 30 min. ^bConcentration of free formaldehyde (FA): after the sample was incubated in a water bath at 37° C. for 1 hour.
# mouse = conditions: in vivo; cited from earlier work
# [6] = tested on: human skin fibroblasts (HSFs); conditions: 24 hrs exposure, 48 hr recovery
# Experimental: Healthy human skin fibroblasts (HSFs) from ATCC (Manassas, Va.) were cultured in dermal cell basal media (ATCC) using a serum-free fibroblast growth kit provided by the company (ascorbic acid, EGF/TGF-β1, glutamine, hydrocortisone, insulin and FB growth supplements). Cells were grown in 5% CO2 and 95% ambient air at 37° C. until confluent. Once confluent, the cells were detached and seeded into 24 well plates at a density of 5×10^4 cells/well and were once again allowed to reach confluence. Next, cells were treated with FAR solutions over a range of concentrations (0.001 mM-5 mM) for 24 hrs. Following cross-linking exposure, all cell media, including FAR solution, was aspirated and each well was rinsed once with DPBS. Fresh media was then reintroduced and the cells were allowed to recover for 48 hrs. Subsequent to cell recovery, cell toxicity was assessed using a modified version of the trypan blue staining protocol. To that end, all culture media was aspirated and each well was rinsed with DPBS. Next, 0.4% trypan blue solution (Gibco, Grand Island, N.Y., USA) was added to each well for 3 minutes at 25° C. The staining solution was then aspirated and cells were washed twice with DPBS. Finally, extent of trypan blue staining and morphology of cells was visualized using an inverted microscope (Fisher Scientific Cat#12-560-45).
# Planar cell culture experiments using Human Skin Fibroblasts (HSFs) were conducted to determine the toxicity thresholds of the FARs. The toxicity threshold was taken to be the highest concentration in mM at which all cells were alive following a 24 hour exposure to the FAR and a 48 hour recovery period.
# rabbit = conditions: cited from earlier work
# [7] = pH 7.4, half max allowed concentration, epithelium intact
# [8] = pH 8.5, half max allowed concentration, epithelium intact
# [9] = pH 8.5, concentrations as low as half max allowed
compound,measurement,setting,value
"O=[N+]([O-])C(Br)(CO)CO [BP, 2-bromo-2-nitro-1,3-propanediol, reference compound]",Mutagenicity,Salmonella,Non- mutagenic§
same,LD50 Oral rat,rat; oral,180 mg/kg
same,ΔTm of scleral tissue,"porcine scleral tissue; 25 mM, pH 7.4, 30 mins",~0.5 °C
same,ΔTm of scleral tissue,"porcine scleral tissue; 25 mM, pH 8.5, 30 mins",~0.5 °C
same,Cross-linking time to gel formation,[1],42 h
"CC1(C)C(=O)N(CO)C(=O)N1CO [DMDM, 1,3-dimethylol-5,5-dimethyl-hydantoin]","cross-linking efficacy compared with nitroalcohol NP (250 mM, 60 minutes)",[2],significantly more effective
same,ΔTm (shift in denaturation temperature of corneal tissue),[2]; [7],2.13±0.273 °C
same,ΔTm (shift in denaturation temperature of corneal tissue),[2]; [8],2.04±0.225 °C
same,Mutagenicity,Salmonella,Non- mutagenic‡
same,Octanol Partition Coefficient (Log P),[3],−1.078 ± 0.654
same,ΔTm of scleral tissue,"porcine scleral tissue; 25 mM, pH 7.4, 30 mins",1.693±0.033 °C
same,scleral cross-linking effect (significance of ΔTm),"porcine scleral tissue; pH 7.4, concentrations as low as half max allowed",statistically significant cross-linking effects
same,scleral cross-linking effect (significance of ΔTm),porcine scleral tissue; [9],statistically significant cross-linking effects
O=CC(O)CO (stereo not shown) [Glyceraldehyde],toxic threshold for HSFs,[4],1 mM
"O=[N+]([O-])C(CO)(CO)CO [HNPD, 2-hydroxymethyl-2-nitro-1,3-propanediol, reference compound]",Mutagenicity,Salmonella,Non- mutagenic∥
same,Concentration of formaldehyde (M)a,[5],0.041 M
same,Concentration of formaldehyde (M)b,[5],0.078 M
same,LD50 Oral rat,"rat; in vivo, po","1,917 mg/kg"
same,Octanol Partition Coefficient (Log P),[3],−0.115 ± 0.770
same,ΔTm of scleral tissue,"porcine scleral tissue; 25 mM, pH 7.4, 30 mins",negative ΔTm
same,ΔTm of scleral tissue,"porcine scleral tissue; 25 mM, pH 8.5, 30 mins",~0.5 °C
same,Cross-linking time to gel formation,[1],29 h
same,LD50 Oral mouse,mouse,"10,550 mg/kg"
"O=C(NCNC(=O)NC1C(=O)NC(=O)N1CO)NC1C(=O)NC(=O)N1CO (stereo not shown) [IMU, N,N′-methylenebis[N-[3-(hydroxymethyl)-2,5-dioxo-4-imidazolidinyl]]-urea]",ΔTm (shift in denaturation temperature of corneal tissue),[2]; [8],−0.69±0.697 °C
same,negative shift in Tm of corneal tissue,"[2]; pH 7.4, half max allowed concentration, epithelium intact, not significant",~0.5 °C
same,cell state (Alive/Dead),[6]; 0.001 mM,Alive
same,cell state (Alive/Dead),[6]; 0.01 mM,Alive
same,cell state (Alive/Dead),[6]; 0.1 mM,Alive
same,cell state (Alive/Dead),[6]; 1 mM,Dead
same,cell state (Alive/Dead),[6]; 5 mM,Dead
same,LD50 Oral rat,rat; oral,"LD50 Oral- rat-11,300 mg/kg"
same,Octanol Partition Coefficient (Log P),[3],−4.930 ± 0.959
same,ΔTm of scleral tissue,"porcine scleral tissue; 25 mM, pH 7.4, 30 mins",1.280±0.392 °C
same,ΔTm of scleral tissue,"porcine scleral tissue; 25 mM, pH 8.5, 30 mins",2.543±0.280 °C
"CCC12COCN1COC2 [OCT, 5-Ethyl-3,7-dioxa-1-azabicyclo [3.3.0] octane]",ΔTm (shift in denaturation temperature of corneal tissue),[2]; [8],1.10±0.246 °C
same,LD50 Oral rat,rat; oral,"> 3,600 mg/kg"
same,ΔTm of scleral tissue,"porcine scleral tissue; 25 mM, pH 7.4, 30 mins",~0.5 °C
same,ΔTm of scleral tissue,"porcine scleral tissue; 25 mM, pH 8.5, 30 mins",~0.5 °C
same,LD50 Dermal rabbit,rabbit; dermal,"1,948 mg/kg"
"O=C([O-])CNCO.[Na+] [SMG, sodium hydroxymethylglycinate]","cross-linking efficacy compared with nitroalcohol NP (250 mM, 60 minutes)",[2],significantly more effective
same,ΔTm (shift in denaturation temperature of corneal tissue),[2]; [7],2.281±0.697 °C
same,ΔTm (shift in denaturation temperature of corneal tissue),[2]; [8],3.573±0.578 °C
same,cell state (Alive/Dead),[6]; 0.001 mM,Alive
same,cell state (Alive/Dead),[6]; 0.01 mM,Alive
same,cell state (Alive/Dead),[6]; 0.1 mM,Alive
same,cell state (Alive/Dead),[6]; 1 mM,Dead
same,cell state (Alive/Dead),[6]; 5 mM,Dead
same,Mutagenicity,Salmonella,Non- mutagenic†
same,LD50 Oral rat,"rat; in vivo, po","LD50 Oral- rat-2,100 mg/kg, LD50 Dermal-"
same,Octanol Partition Coefficient (Log P),[3],−1.197
same,ΔTm of scleral tissue,"porcine scleral tissue; 25 mM, pH 7.4, 30 mins",1.697±0.311 °C
same,ΔTm of scleral tissue,"porcine scleral tissue; 25 mM, pH 8.5, 30 mins",5.463±0.419 °C
same,ΔTm of scleral tissue,"porcine scleral tissue; pH 7.4, 39.06 mM (max allowed), 30 mins",0.007±0.222 °C
same,ΔTm of scleral tissue,"porcine scleral tissue; pH 8.5, 39.06 mM (max allowed), 30 mins",9.073±0.450 °C
same,scleral cross-linking effect (significance of ΔTm),porcine scleral tissue; [9],statistically significant cross-linking effects
same,LD50 Dermal rabbit,"rabbit; in vivo, topical or ocular","rabbit->2,000 mg/kg"
COC(=O)C1=CO[C@@H](O)[C@@H]2C(CO)=CC[C@H]12 [genipin],toxic threshold for HSFs,[4],on par with bronopol
O=CCCCC=O [glutaraldehyde],toxic threshold for HSFs,[4],on par with bronopol
"CC(CO)(CO)[N+](=O)[O-] [nitro-diol, 2-methyl-2-nitro-1,3-propanediol]",Concentration of formaldehyde (M)a,[5],0.011 M
same,Concentration of formaldehyde (M)b,[5],0.044 M
same,Cross-linking time to gel formation,[1],66 h
"CC(CO)[N+](=O)[O-] (stereo not shown) [nitro-monol, 2-nitro-1-propanol]",Concentration of formaldehyde (M)a,[5],0.018 M
same,Concentration of formaldehyde (M)b,[5],0.014 M
"N,N′-methylenebis[N-[3-(hydroxymethyl)-2,5-dioxo-4-imidazolidinyl]]-urea [IMU]",Cross-linking time to gel formation,[1],4 h
